Measurements reported in patent US6767887B1, “Exendin analogues, processes for their preparation and medicaments containing them” (Roche Diagnostics GmbH, priority 1999, dated 2004).
Where a SMILES comes first, the peptide text is derived from it. Where no end group is shown, it is not given here. [ ]: non-standard residue; d: D form. Nle = CCCC[C@H](N)C(=O)O

Tests used:
[1] = test system: clonal B cell line INS-1; experiment: Increase of cytosolic calcium concentration in INS-1 cells (Fura-2); type: cell-based; conditions: peptide 10^−8 M, 10 mM glucose
Experimental: Measurement of the Increase of the Cytosolic Calcium Concentration in B Cells of the Endocrine Pancreas (Clonal B Cell Line INS-1)
INS-1 cells are cultured in RPMI 1640 medium containing 10% FCS, 10 mM HEPES buffer (pH 7.4), 2 mM L-glutamine, 100 i.U. penicillin/ml, 100 μg streptomycine/ml, 1 mM pyruvate (sodium salt) and 50 μM 2-mercaptoethanol at 37° C. in an atmosphere of 95% air and 5% CO2. After 6 to 8 days growth on plastic cell culture plates, the subconfluent cells, after rinsing once with PBS (phosphate-buffered saline), are detached from the base by incubating for four minutes at 37° C. with 0.025% trypsin and 0.27 mM EDTA in isoosmotic saline solution
The detached cells are resuspended in Spinner medium (culture medium as above, but containing 5% FCS and 25 mM HEPES) and incubated for two and a half hours in a Spinner bottle with a stirrer bar. Afterwards the medium is removed by centrifugation and the cells are resuspended in Spinner medium. They are then incubated for 30 minutes at 37° C. with 2 μM Fura-2/acetoxymethyl ester under the same conditions as before. The Fura loading of the cells is terminated by washing the cells once Spinner medium (room temperature). Afterwards the cells are resuspended in spinner medium at room temperature (2×10^7 cells/ml). The cells are then removed from this suspension for calcium measurements.
The measurements are carried out at 37° C. in a modified Krebs-Ringer buffer (KRBH) containing 136 mM NaCl, 4.8 mM KCl, 2 mM CaCl2, 1.2 MM MgSO4, 1.2 mM KH2PO4, 5 mM NaNCO3, 10 mM glucose, 250 μM sulfinpyrazone (to inhibit the Fura-2 efflux into the medium) and 25 mM HEPES buffer (adjusted to pH 7.4 with NaOH). The cell concentration is 1-2×10^6/ml. The measurements are carried out in a cuvette stirred with a stirring bar in a spectrofluorimeter at 37° C. with 1.5 ml cell suspension. The excitation wavelength is 340 nm, the emission wavelength is 505 nm. At the end of the measurement 50 μM MnCl2 is added which is followed by 100 μm DTPA (diethylenetriamine pentaacetate) in order to determine the proportion of extracellular fluorescence indicator relative to the measured fluorescence by temporarily quenching the fluorescence of extracellular Fura. After the addition of DTPA the entire Fura is firstly converted into a calcium-saturated and then into a calcium-free state to determine the calibration values Fmax (calcium-saturated) and Fmin (calcium-free) for the respective measurement. For this purpose the cells are lysed by adding 0.1% Triton X-100. The dye is saturated with calcium by contact with the high extracellular calcium concentration. […]
The cytosolic calcium ion concentration is calculated according to the algorithm introduced by R. Tsien and colleagues (Grynkiewicz, G., 1985): […]

[2] = target: dipeptidyl peptidase IV (DDP-IV) (Homo sapiens, UniProt P27487)
Chain of dipeptidyl peptidase IV (DDP-IV) (P27487 whole entry): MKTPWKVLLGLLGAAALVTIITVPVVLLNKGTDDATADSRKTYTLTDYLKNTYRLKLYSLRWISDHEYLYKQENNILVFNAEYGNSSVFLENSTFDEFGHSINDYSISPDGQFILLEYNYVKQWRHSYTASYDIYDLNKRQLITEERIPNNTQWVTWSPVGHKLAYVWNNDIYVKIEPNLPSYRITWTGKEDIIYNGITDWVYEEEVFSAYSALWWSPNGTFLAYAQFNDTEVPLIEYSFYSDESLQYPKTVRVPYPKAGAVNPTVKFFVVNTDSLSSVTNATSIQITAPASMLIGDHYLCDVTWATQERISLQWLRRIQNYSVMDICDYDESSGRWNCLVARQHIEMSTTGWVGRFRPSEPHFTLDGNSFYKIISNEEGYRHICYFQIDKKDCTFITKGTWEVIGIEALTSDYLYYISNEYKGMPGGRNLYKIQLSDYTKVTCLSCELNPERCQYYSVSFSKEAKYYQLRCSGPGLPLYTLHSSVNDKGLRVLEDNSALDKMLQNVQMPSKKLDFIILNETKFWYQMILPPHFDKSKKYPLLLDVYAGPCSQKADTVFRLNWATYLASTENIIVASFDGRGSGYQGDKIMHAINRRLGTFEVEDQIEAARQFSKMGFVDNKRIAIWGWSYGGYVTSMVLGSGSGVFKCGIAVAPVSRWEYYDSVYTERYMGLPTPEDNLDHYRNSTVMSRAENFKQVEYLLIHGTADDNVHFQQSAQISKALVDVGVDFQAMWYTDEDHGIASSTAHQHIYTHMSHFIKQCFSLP
Experimental: Renal brush border microvilli membranes (BBM) are therefore a suitable source for the relevant ectopeptidases and can be used as an in vitro test for the metabolic stability of synthetic peptides. Alternatively it is possible to use ectopeptidase preparations.
(§1) Microvilli membranes (0.5-1 μg protein) or the respective ectopeptidase preparation (60-300 ng) were incubated with 10 μg peptide (about 3 nmol) in 100 μl HEPES buffer (50 mM, pH 7.4) which contained 50 mM NaCl. The reactions were terminated at predetermined times (duration up to 1 hour) by boiling. Subsequently the samples were centrifuged (10,000×g), diluted with 150 μl 0.1% TFA and analysed by means of reversed phase (RP) HPLC. Each sample was determined in duplicate.
A system with the following components was used for HPLC analysis: A 2248 low pressure pump (Pharmacia-LKB, Freiburg), a WISP 10B autoinjector (Millipore-Waters, Eschborn), a UV detector SP-4 (Gynkotec, Berlin), a low pressure mixing system (Pharmacia-LKB, Freiburg) and a program manager software control (Pharmacia-LKB, Freiburg). […] After injection of 244 μl of the sample solution onto a column equilibrated with the motile solvent A, the incubation products were eluted with a linear gradient of 0% to 80% B in 80 min and detected at 215 nm UV absorption. […]

[3] = test system: brush border microvilli membranes (BBM); conditions: pH 7.4
Experimental: Renal brush border microvilli membranes (BBM) are therefore a suitable source for the relevant ectopeptidases and can be used as an in vitro test for the metabolic stability of synthetic peptides.
Microvilli membranes of the rat and pig kidney cortex are isolated by means of subcellular fractionation using the differential centrifugation method (Booth and Kenny (1975)). 4 Brush border ectopeptidases are examined fluorimetrically and other marker enzymes are measured colorimetrically in order to assess the degree of purity and the yield of membranes.
as §1
A system with the following components was used for HPLC analysis: A 2248 low pressure pump (Pharmacia-LKB, Freiburg), a WISP 10B autoinjector (Millipore-Waters, Eschborn), a UV detector SP-4 (Gynkotec, Berlin), a low pressure mixing system (Pharmacia-LKB, Freiburg) and a program manager software control (Pharmacia-LKB, Freiburg). […]

[4] = test system: isolated islet cells; experiment: Insulin release from isolated islets; type: cell-based, mice
Experimental: The abdomen of anaesthetised (0.3-0.5 ml nembutal/isotonic saline solution 1:4 i.p.) mice is opened by a median incision and two side incisions, the peritoneum is immobilized and cut open at the costal arch along the diaphragm. All organs are inflated and stained red by injection of a neutral red solution into the left ventricle. The pancreas is carefully removed along the stomach and duodenum up to the mesenteries. Until digestion the pancreas is placed in an ice-cooled petri dish in Hank's balanced salt solution (HBBS) and a few drops of neutral red.
Two pancreases are dabbed with cellulose, placed in a tube, 5 ml freshly prepared collagenase solution (collagenase (Cl. histolyticum) 0.74 U/mg, Serva, 2 mg/ml in HBBS/water 1:9, pH 7.4) is added and they are incubated for 18 minutes at 37° C. while shaking. Subsequently a centrifugation is carried out at 1000 rpm for 1 minute. The supernatant is discarded, In a second digestion step 5 ml collagenase solution (1 mg/ml) is incubated for 4 minutes, shaken and undigested tissue is sedimented. The supernatant is decanted and the whole process is repeated four to five times. The supernatant is then centrifuged for 1 minute at 1000 rpm and the collagenase solution is discarded. The remaining pellet is shaken with ice-cold HBBS and sedimented for ca. 10 minutes on ice. This wash process is repeated for a further three times. The faint pink stained islets are picked out from the washed pellets under a stereoscopic magnifying glass and transferred to culture medium (100 ml RPMI 1640 (Gibco), 1 ml glutamine, 1 ml penicillin, 1 ml Cibrobay antibiotic (Bayer), 10 ml foetal calf serum, 2 ml Hepes buffer 1 M). In order to obtain the purest possible culture, the islets are picked two to three times and transferred to fresh culture medium.
The islet cells from the culture medium are distributed in Eppendorff vessels containing […] stimulation buffer (118 mM NaCl, 0.2 mM NaH^2PO^4, 0.565 mM MgCl^2, 1.25 mM CaCl^2, 4.1 mM KCl, 10 mM Hepes, 1% BSA, 3.3 mM glucose; pH 7.4) in a quantity of 10 islets per Eppendorff vessel and placed in an incubator for 1 hour at 37° C. Subsequently the peptides to be tested are added and filled up to […] with stimulation buffer and incubated for one hour at 37° C. The islets are centrifuged at 1000 rpm for 1 minute. The amount of […] is measured in the supernatant using an insulin-RIA (DPC Biermann, Nauheim). Each test substance was determined in quadruplicate.
Some exendin analogues were tested as described above on isolated islet cells for insulin secretory activity.
Insulin Release From Isolated Islets After 1 Hour [mIU/h/10 Islets] in the Presence of 10 mM Glucose: […]

10 (HGEGTFTSDLSKQMEEEAVRAFIEWLKAGR) [compound 10]
Δ[Ca^2+]cyt ± SD (n = 4) [1]: 69 ± 30 nM

CCCC[C@H](NC(=O)[C@H](CCC(N)=O)NC(=O)[C@H](CCCCN)NC(=O)[C@H](CO)NC(=O)[C@H](CC(C)C)NC(=O)[C@H](CC(=O)O)NC(=O)[C@H](CO)NC(=O)[C@@H](NC(=O)[C@H](Cc1ccccc1)NC(=O)[C@@H](NC(=O)CNC(=O)[C@H](CC(=O)O)NC(=O)[C@H](C)NC(=O)[C@@H](N)Cc1c[nH]cn1)[C@@H](C)O)[C@@H](C)O)C(=O)N[C@@H](CCC(=O)O)C(=O)N[C@@H](CCC(=O)O)C(=O)N[C@@H](CCC(=O)O)C(=O)N[C@@H](C)C(=O)N[C@H](C(=O)N[C@@H](CCCNC(=N)N)C(=O)N[C@@H](CC(C)C)C(=O)N[C@@H](Cc1ccccc1)C(=O)N[C@H](C(=O)N[C@@H](CCC(=O)O)C(=O)N[C@@H](Cc1c[nH]c2ccccc12)C(=O)N[C@@H](CC(C)C)C(=O)N[C@@H](CCCCN)C(=O)N[C@@H](CC(N)=O)C(=O)NCC(=O)N[C@@H](CCCNC(=N)N)C(N)=O)[C@@H](C)CC)C(C)C [compound 78] (H-HADGTFTSDLSKQ[Nle]EEEAVRLFIEWLKNGR-NH2)
Substrate for DDP-IV [2]: no proteolysis

CCCC[C@H](NC(=O)[C@H](CCC(N)=O)NC(=O)[C@H](CCCCN)NC(=O)[C@H](CO)NC(=O)[C@H](CC(C)C)NC(=O)[C@H](CC(=O)O)NC(=O)[C@H](CO)NC(=O)[C@@H](NC(=O)[C@H](Cc1ccccc1)NC(=O)[C@@H](NC(=O)CNC(=O)[C@H](CC(=O)O)NC(=O)[C@H](CCCCN)NC(=O)[C@@H](N)Cc1c[nH]cn1)[C@@H](C)O)[C@@H](C)O)C(=O)N[C@@H](CCC(=O)O)C(=O)N[C@@H](CCC(=O)O)C(=O)N[C@@H](CCC(=O)O)C(=O)N[C@@H](C)C(=O)N[C@H](C(=O)N[C@@H](CCCNC(=N)N)C(=O)N[C@@H](CC(C)C)C(=O)N[C@@H](Cc1ccccc1)C(=O)N[C@H](C(=O)N[C@@H](CCC(=O)O)C(=O)N[C@@H](Cc1c[nH]c2ccccc12)C(=O)N[C@@H](CC(C)C)C(=O)N[C@@H](CCCCN)C(=O)N[C@@H](CC(N)=O)C(=O)NCC(=O)N[C@@H](CCCNC(=N)N)C(N)=O)[C@@H](C)CC)C(C)C [compound 86] (H-HKDGTFTSDLSKQ[Nle]EEEAVRLFIEWLKNGR-NH2)
Degradation rate [3]: 2.05 ng peptide/min/mg BBM

GLP-1-(7-36)-NH2 [GLP1-(7-36)-NH2, reference compound]
Δ[Ca^2+]cyt ± SD (n = 4) [1]: 65 ± 10 nM
Insulin release from isolated islets after 1 hour ([4]; peptide 10^−7, 10 mM glucose): 53.52 mIU/h/10 Islets
Insulin release from isolated islets after 1 hour ([4]; peptide 10^−8, 10 mM glucose): 42.78 mIU/h/10 Islets
Insulin release from isolated islets after 1 hour ([4]; peptide 10^−9, 10 mM glucose): 29.99 mIU/h/10 Islets

[Ala^21, Arg^30]-exendin-4-(1-30)-NH2 [Seq. ID 8]
Δ[Ca^2+]cyt ± SD (n = 4) [1]: 64 ± 8 nM

[H^2 Nle^14R^30]-Ex-3-(1-30)—NH2 (HHDGTFTSDLSKQ[Nle]EEEAVRLFIEWLKNGR-NH2; N-terminus assumed; SMILES CCCC[C@H](NC(=O)[C@H](CCC(N)=O)NC(=O)[C@H](CCCCN)NC(=O)[C@H](CO)NC(=O)[C@H](CC(C)C)NC(=O)[C@H](CC(=O)O)NC(=O)[C@H](CO)NC(=O)[C@@H](NC(=O)[C@H](Cc1ccccc1)NC(=O)[C@@H](NC(=O)CNC(=O)[C@H](CC(=O)O)NC(=O)[C@H](Cc1c[nH]cn1)NC(=O)[C@@H](N)Cc1c[nH]cn1)[C@@H](C)O)[C@@H](C)O)C(=O)N[C@@H](CCC(=O)O)C(=O)N[C@@H](CCC(=O)O)C(=O)N[C@@H](CCC(=O)O)C(=O)N[C@@H](C)C(=O)N[C@H](C(=O)N[C@@H](CCCNC(=N)N)C(=O)N[C@@H](CC(C)C)C(=O)N[C@@H](Cc1ccccc1)C(=O)N[C@H](C(=O)N[C@@H](CCC(=O)O)C(=O)N[C@@H](Cc1c[nH]c2ccccc12)C(=O)N[C@@H](CC(C)C)C(=O)N[C@@H](CCCCN)C(=O)N[C@@H](CC(N)=O)C(=O)NCC(=O)N[C@@H](CCCNC(=N)N)C(N)=O)[C@@H](C)CC)C(C)C) [Seq. ID 84]
Insulin release from isolated islets after 1 hour ([4]; peptide 10^−7, 10 mM glucose): 48.94 mIU/h/10 Islets
Insulin release from isolated islets after 1 hour ([4]; peptide 10^−8, 10 mM glucose): 41.72 mIU/h/10 Islets
Insulin release from isolated islets after 1 hour ([4]; peptide 10^−9, 10 mM glucose): 38.76 mIU/h/10 Islets
Insulin release from isolated islets after 1 hour ([4]; peptide 10^−10, 10 mM glucose): 35.05 mIU/h/10 Islets

[Nle^14, Arg^30]-exendin-3-(1-30)-NH2 (HSDGTFTSDLSKQ[Nle]EEEAVRLFIEWLKNGR-NH2; N-terminus assumed; SMILES CCCC[C@H](NC(=O)[C@H](CCC(N)=O)NC(=O)[C@H](CCCCN)NC(=O)[C@H](CO)NC(=O)[C@H](CC(C)C)NC(=O)[C@H](CC(=O)O)NC(=O)[C@H](CO)NC(=O)[C@@H](NC(=O)[C@H](Cc1ccccc1)NC(=O)[C@@H](NC(=O)CNC(=O)[C@H](CC(=O)O)NC(=O)[C@H](CO)NC(=O)[C@@H](N)Cc1c[nH]cn1)[C@@H](C)O)[C@@H](C)O)C(=O)N[C@@H](CCC(=O)O)C(=O)N[C@@H](CCC(=O)O)C(=O)N[C@@H](CCC(=O)O)C(=O)N[C@@H](C)C(=O)N[C@H](C(=O)N[C@@H](CCCNC(=N)N)C(=O)N[C@@H](CC(C)C)C(=O)N[C@@H](Cc1ccccc1)C(=O)N[C@H](C(=O)N[C@@H](CCC(=O)O)C(=O)N[C@@H](Cc1c[nH]c2ccccc12)C(=O)N[C@@H](CC(C)C)C(=O)N[C@@H](CCCCN)C(=O)N[C@@H](CC(N)=O)C(=O)NCC(=O)N[C@@H](CCCNC(=N)N)C(N)=O)[C@@H](C)CC)C(C)C) [Seq. ID 5]
Δ[Ca^2+]cyt ± SD (n = 4) [1]: 63 ± 8 nM
